Structures can show the parent of a compound that is named as a salt. Where two headings read alike, the source gives them in different places.
Key:
Format in all cases: biochemical
[1] = target: T1, human JAK1 (a.a. 837-1142) (Homo sapiens, UniProt P23458); test: In vitro JAK kinase assay (HTRF, phosphorylation of a biotinylated peptide), JAK1; details: read-out: JAK1 IC50
T1 construct: human JAK1 (a.a. 837-1142); His tag (N); made in house; host or cells: insect cells (baculovirus)
Method in brief: (§1)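 Kinase activity was measured as phosphorylation of a biotinylated peptide, with ATP at 90 μM for JAK1, 30 μM for JAK2 and 3 μM for JAK3. Reactions ran 1 hr at room temperature, were stopped with EDTA plus SA-APC and Eu-Py20, and were read by HTRF after 40 minutes of antibody binding.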

[2] = target: T2, human JAK2 (a.a. 828-1132) (Homo sapiens, UniProt O60674); test: In vitro JAK kinase assay (HTRF, phosphorylation of a biotinylated peptide), JAK2
T2 construct: JAK2 (a.a. 828-1132); His tag (N); made in house; host or cells: insect cells (baculovirus)
Method in brief: as §1

[3] = target: T3, human JAK3 (a.a. 781-1124) (Homo sapiens, UniProt P52333); test: In vitro JAK kinase assay (HTRF, phosphorylation of a biotinylated peptide), JAK3
T3 construct: JAK3 (a.a. 781-1124); His tag (N); made in house; host or cells: insect cells (baculovirus)
Method in brief: as §1

[4] = target: TYK2 (Homo sapiens, UniProt P29597); test: TYK2 kinase inhibition (Table A1)
Sequence of TYK2 (P29597 whole entry): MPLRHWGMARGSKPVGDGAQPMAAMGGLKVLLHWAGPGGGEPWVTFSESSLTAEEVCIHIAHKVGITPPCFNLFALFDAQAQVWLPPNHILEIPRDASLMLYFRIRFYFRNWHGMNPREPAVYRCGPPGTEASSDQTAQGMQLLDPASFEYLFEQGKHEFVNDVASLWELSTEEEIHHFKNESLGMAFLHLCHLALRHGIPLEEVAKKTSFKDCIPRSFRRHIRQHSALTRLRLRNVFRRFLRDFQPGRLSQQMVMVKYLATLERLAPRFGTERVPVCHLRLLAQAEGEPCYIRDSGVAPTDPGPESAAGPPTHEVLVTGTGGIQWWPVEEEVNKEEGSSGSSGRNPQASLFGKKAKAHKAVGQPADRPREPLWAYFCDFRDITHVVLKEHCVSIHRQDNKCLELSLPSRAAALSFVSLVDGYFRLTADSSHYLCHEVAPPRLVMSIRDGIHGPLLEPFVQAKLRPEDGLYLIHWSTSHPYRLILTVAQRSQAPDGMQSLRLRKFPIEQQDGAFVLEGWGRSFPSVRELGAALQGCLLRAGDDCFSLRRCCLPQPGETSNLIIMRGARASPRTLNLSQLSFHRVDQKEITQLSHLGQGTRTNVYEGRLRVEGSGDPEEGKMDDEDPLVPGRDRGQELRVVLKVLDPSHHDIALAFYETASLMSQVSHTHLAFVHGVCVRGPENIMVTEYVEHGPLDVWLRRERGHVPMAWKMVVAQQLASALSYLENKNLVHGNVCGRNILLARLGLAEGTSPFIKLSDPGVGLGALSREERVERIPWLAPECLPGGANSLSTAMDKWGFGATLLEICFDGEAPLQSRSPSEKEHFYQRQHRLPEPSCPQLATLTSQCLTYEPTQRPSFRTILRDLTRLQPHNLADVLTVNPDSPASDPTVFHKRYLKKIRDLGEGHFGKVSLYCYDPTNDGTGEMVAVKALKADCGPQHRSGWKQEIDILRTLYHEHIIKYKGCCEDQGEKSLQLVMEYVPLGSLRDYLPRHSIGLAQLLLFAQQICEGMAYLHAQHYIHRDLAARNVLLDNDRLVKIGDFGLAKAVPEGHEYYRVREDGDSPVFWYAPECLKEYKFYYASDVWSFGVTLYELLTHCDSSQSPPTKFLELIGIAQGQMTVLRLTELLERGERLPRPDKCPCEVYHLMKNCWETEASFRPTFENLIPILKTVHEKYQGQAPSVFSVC

T1 sequence (P23458 849-1154): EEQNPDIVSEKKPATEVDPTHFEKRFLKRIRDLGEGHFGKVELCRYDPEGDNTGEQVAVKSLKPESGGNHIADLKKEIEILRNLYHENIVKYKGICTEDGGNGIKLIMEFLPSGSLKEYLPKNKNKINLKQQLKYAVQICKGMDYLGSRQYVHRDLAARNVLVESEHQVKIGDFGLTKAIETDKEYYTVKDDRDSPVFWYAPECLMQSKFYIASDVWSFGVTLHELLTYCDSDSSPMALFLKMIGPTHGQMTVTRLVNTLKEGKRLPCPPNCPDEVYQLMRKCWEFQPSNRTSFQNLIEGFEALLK
T2 sequence (O60674 828-1132): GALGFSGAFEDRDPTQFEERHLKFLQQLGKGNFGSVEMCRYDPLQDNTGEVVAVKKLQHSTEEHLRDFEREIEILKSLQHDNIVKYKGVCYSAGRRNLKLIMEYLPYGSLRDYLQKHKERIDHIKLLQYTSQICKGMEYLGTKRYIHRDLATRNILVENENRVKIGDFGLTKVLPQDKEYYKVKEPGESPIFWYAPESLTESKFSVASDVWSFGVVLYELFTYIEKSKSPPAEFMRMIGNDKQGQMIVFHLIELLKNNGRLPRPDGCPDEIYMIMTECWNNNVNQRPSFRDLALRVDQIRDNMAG
T3 sequence (P52333 781-1124): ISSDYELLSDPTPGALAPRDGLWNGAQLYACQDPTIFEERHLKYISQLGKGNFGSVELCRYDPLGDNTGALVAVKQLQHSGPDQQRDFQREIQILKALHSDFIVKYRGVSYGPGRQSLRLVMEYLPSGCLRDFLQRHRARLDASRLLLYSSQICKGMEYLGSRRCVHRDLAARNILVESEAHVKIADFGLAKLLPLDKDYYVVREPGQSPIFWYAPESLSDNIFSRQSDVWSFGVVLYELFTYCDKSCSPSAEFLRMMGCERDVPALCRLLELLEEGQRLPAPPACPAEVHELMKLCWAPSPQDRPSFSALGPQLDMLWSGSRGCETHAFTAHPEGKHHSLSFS

IC50 ([1]; Table D1)	IC50 ([2]; Table D1)	IC50 ([3]; Table D1)	IC50 ([4]; Table D1)	IC50 [1]	IC50 [2]	IC50 [3]	IC50 [4]	IC50 ([1]; method AA1 (90 μM ATP) or AA2 (1000 μM ATP), not stated per value)	IC50 ([2]; method AA1 (30 μM ATP) or AA2 (1000 μM ATP), not stated per value)	IC50 ([3]; method AA1 (3 μM ATP) or AA2 (1000 μM ATP), not stated per value)	SMILES
12 nM	22 nM	64 nM	166 nM	–	–	–	–	–	–	–	COC(=O)Cn1c(=O)oc2c3cc(cc21)Nc1nc(ncc1Cl)Nc1cccc(c1)CC3 [Example D183, Methyl [4-chloro-19-oxo-18-oxa-2,6,8,20,25-pentaazapentacyclo[14.6.1.1(3,7).1(9,13).0(17,21)]pentacosa-1(23),3(25),4,6,9(24),10,12,16,21-nonaen-20-yl]acetate trifluoroacetate]
31 nM	106 nM	> 400 nM	> 400 nM	–	–	–	–	–	–	–	COC(=O)N1CCN(C(=O)COc2ccc3cc2CCc2cncc(c2)Nc2ncc(Cl)c(n2)N3)CC1 [Example D261, Methyl 4-({[6-chloro-2,4,8,18,22-pentaazatetracyclo[14.3.1.1(3,7).1(9,13)]docosa-1(20),3(22),4,6,9(21),10,12,16,18-nonaen-12-yl]oxy}acetyl)piperazine-1-carboxylate bis(trifluoroacetate)]
255 nM	> 400 nM	> 400 nM	> 400 nM	–	–	–	–	–	–	–	O=C(c1cccnc1)N1CCC(CCOc2ccc3cc2CCc2cncc(c2)Nc2ncc(Cl)c(n2)N3)CC1 [Example D180, 6-Chloro-12-{2-[1-(pyridin-3-ylcarbonyl)piperidin-4-yl]ethoxy}-2,4,8,18,22-pentaazatetracyclo[14.3.1.1(3,7).1(9,13)]docosa-1(20),3(22),4,6,9(21),10,12,16,18-nonaene tris(trifluoroacetate)]
226 nM	> 400 nM	> 400 nM	> 400 nM	–	–	–	–	–	–	–	O=C(c1cccnc1Cl)N1CCC(CCOc2ccc3cc2CCc2cncc(c2)Nc2ncc(Cl)c(n2)N3)CC1 [Example D179, 6-Chloro-12-(2-{1-[(2-chloropyridin-3-yl)carbonyl]piperidin-4-yl}ethoxy)-2,4,8,18,22-pentaazatetracyclo[14.3.1.1(3,7).1(9,13)]docosa-1(20),3(22),4,6,9(21),10,12,16,18-nonaene tris(trifluoroacetate)]
59 nM	> 400 nM	> 400 nM	> 400 nM	–	–	–	–	–	–	–	O=C(COc1ccc2cc1CCc1cncc(c1)Nc1ncc(Cl)c(n1)N2)N1CCN(c2cccc(C(F)(F)F)n2)CC1 [Example D248, 6-Chloro-12-(2-oxo-2-{4-[6-(trifluoromethyl)pyridin-2-yl]piperazin-1-yl}ethoxy)-2,4,8,18,22-pentaazatetracyclo[14.3.1.1(3,7).1(9,13)]docosa-1(20),3(22),4,6,9(21),10,12,16,18-nonaene tris(trifluoroacetate)]
24 nM	149 nM	> 1000 nM	270 nM	–	–	–	–	–	–	–	CS(=O)(=O)N1CC(CC(=O)Nc2ccc3cc2CCc2cncc(c2)Nc2ncc(Cl)c(n2)N3)C1 [Example D146, N-[6-Chloro-2,4,8,18,22-pentaazatetracyclo[14.3.1.1(3,7).1(9,13)]docosa-1(20),3(22),4,6,9(21),10,12,16,18-nonaen-12-yl]-2-[1-(methylsulfonyl)azetidin-3-yl]acetamide bis(trifluoroacetate)]
41 nM	160 nM	> 400 nM	> 400 nM	–	–	–	–	–	–	–	O=C(COc1ccc2cc1CCc1cncc(c1)Nc1ncc(Cl)c(n1)N2)N1CCN(c2ccccc2)CC1 [Example D234, 6-Chloro-12-[2-oxo-2-(4-phenylpiperazin-1-yl)ethoxy]-2,4,8,18,22-pentaazatetracyclo[14.3.1.1(3,7).1(9,13)]docosa-1(20),3(22),4,6,9(21),10,12,16,18-nonaene tris(trifluoroacetate)]
30 nM	150 nM	> 400 nM	> 400 nM	–	–	–	–	–	–	–	O=C(CC1CN(c2ccccn2)C1)Nc1ccc2cc1CCc1cncc(c1)Nc1ncc(Cl)c(n1)N2 [Example D153, N-[6-Chloro-2,4,8,18,22-pentaazatetracyclo[14.3.1.1(3,7).1(9,13)]docosa-1(20),3(22),4,6,9(21),10,12,16,18-nonaen-12-yl]-2-(1-pyridin-2-ylazetidin-3-yl)acetamide tris(trifluoroacetate)]
124 nM	208 nM	> 400 nM	> 400 nM	–	–	–	–	–	–	–	O=C(Nc1cccc(N2CCOCC2)n1)N1CCC(CCOc2ccc3cc2CCc2cncc(c2)Nc2ncc(Cl)c(n2)N3)CC1 [Example D176, 4-(2-{[6-Chloro-2,4,8,18,22-pentaazatetracyclo[14.3.1.1(3,7).1(9,13)]docosa-1(20),3(22),4,6,9(21),10,12,16,18-nonaen-12-yl]oxy}ethyl)-N-(6-morpholin-4-ylpyridin-2-yl)piperidine-1-carboxamide tris(trifluoroacetate)]
23 nM	80 nM	> 400 nM	265 nM	–	–	–	–	–	–	–	NC(=O)N1CCN(C(=O)COc2ccc3cc2CCc2cncc(c2)Nc2ncc(Cl)c(n2)N3)CC1 [Example D270, 4-({[6-Chloro-2,4,8,18,22-pentaazatetracyclo[14.3.1.1(3,7).1(9,13)]docosa-1(20),3(22),4,6,9(21),10,12,16,18-nonaen-12-yl]oxy}acetyl)piperazine-1-carboxamide bis(trifluoroacetate)]
53 nM	40 nM	162 nM	792 nM	–	–	–	–	–	–	–	O=C(Cn1c(=O)oc2c3cc(cc21)Nc1nc(ncc1Cl)Nc1cccc(c1)CC3)NCc1ccccc1 [Example D186, N-Benzyl-2-[4-chloro-19-oxo-18-oxa-2,6,8,20,25-pentaazapentacyclo[14.6.1.1(3,7).1(9,13).0(17,21)]pentacosa-1(23),3(25),4,6,9(24),10,12,16,21-nonaen-20-yl]acetamide trifluoroacetate]

The next lines start with the molecule.

SMILES	IC50 ([1]; Table D1)	IC50 ([2]; Table D1)	IC50 ([3]; Table D1)	IC50 ([4]; Table D1)	IC50 [1]	IC50 [2]	IC50 [3]	IC50 [4]	IC50 ([1]; method AA1 (90 μM ATP) or AA2 (1000 μM ATP), not stated per value)	IC50 ([2]; method AA1 (30 μM ATP) or AA2 (1000 μM ATP), not stated per value)	IC50 ([3]; method AA1 (3 μM ATP) or AA2 (1000 μM ATP), not stated per value)
O=C(Cc1nc2ccccc2[nH]1)Nc1ccc2cc1CCc1cccc(c1)Nc1ncc(Cl)c(n1)N2 [Example C44, 2-(1H-Benzimidazol-2-yl)-N-[6-chloro-2,4,8,22-tetraazatetracyclo[14.3.1.1(3,7).1(9,13)]docosa-1(20),3(22),4,6,9(21),10,12,16,18-nonaen-12-yl]acetamide bis(trifluoroacetate)]	–	–	–	–	70 nM	53 nM	779 nM	478 nM	–	–	–
Cc1cc(C(=O)N2CCC(CC(=O)Nc3ccc4cc3CCc3cncc(c3)Nc3ncc(C)c(n3)N4)CC2)no1 [Example C51, 2-{1-[(5-Methylisoxazol-3-yl)carbonyl]piperidin-4-yl}-N-[6-methyl-2,4,8,18,22-pentaazatetracyclo[14.3.1.1(3,7).1(9,13)]docosa-1(20),3(22),4,6,9(21),10,12,16,18-nonaen-12-yl]acetamide bis(trifluoroacetate)]	–	–	–	–	13 nM	371 nM	> 400 nM	100 nM	–	–	–
Cc1[nH]c2ccccc2c1CC(=O)Nc1ccc2cc1CCc1cccc(c1)Nc1ncc(Cl)c(n1)N2 [Example C34, N-[6-Chloro-2,4,8,22-tetraazatetracyclo[14.3.1.1(3,7).1(9,13)]docosa-1(20),3(22),4,6,9(21),10,12,16,18-nonaen-12-yl]-2-(2-methyl-1H-indol-3-yl)acetamide trifluoroacetate]	–	–	–	–	265 nM	178 nM	4000 nM	775 nM	–	–	–
Cc1cc(C(=O)N2CCC(CC(=O)Nc3ccc4cc3CCc3cncc(c3)Nc3ncc(F)c(n3)N4)CC2)no1 [Example C49, N-[6-Fluoro-2,4,8,18,22-pentaazatetracyclo[14.3.1.1(3,7).1(9,13)]docosa-1(20),3(22),4,6,9(21),10,12,16,18-nonaen-12-yl]-2-{1-[(5-methylisoxazol-3-yl)carbonyl]piperidin-4-yl}acetamide trifluoroacetate]	–	–	–	–	50 nM	> 400 nM	> 400 nM	326 nM	–	–	–
O=C(COc1ccc2cc1CCc1cncc(c1)Nc1ncc(Cl)c(n1)N2)N1CCN(Cc2ccncc2)CC1 [Example D256, 6-Chloro-12-{2-oxo-2-[4-(pyridin-4-ylmethyl)piperazin-1-yl]ethoxy}-2,4,8,18,22-pentaazatetracyclo[14.3.1.1(3,7).1(9,13)]docosa-1(20),3(22),4,6,9(21),10,12,16,18-nonaene tris(trifluoroacetate)]	150 nM	217 nM	> 400 nM	> 400 nM	–	–	–	–	–	–	–
O=C(CC1CCN(c2nc3cccnc3o2)CC1)Nc1ccc2cc1CCc1cccc(c1)Nc1ncc(Cl)c(n1)N2 [Example A126, N-[6-Chloro-2,4,8,22-tetraazatetracyclo[14.3.1.1(3,7).1(9,13)]docosa-1(20),3(22),4,6,9(21),10,12,16,18-nonaen-12-yl]-2-(1-[1,3]oxazolo[5,4-b]pyridin-2-ylpiperidin-4-yl)acetamide bis(trifluoroacetate)]	–	–	–	–	–	–	–	7.5 nM	0.5 nM	2.6 nM	34 nM
O=C(c1ccccn1)N1Cc2cccc(c2)Nc2ncc(Cl)c(n2)Nc2cccc1c2 [Example C23, 6-Chloro-14-(pyridin-2-ylcarbonyl)-2,4,8,14,22-pentaazatetracyclo[14.3.1.1(3,7).1(9,13)]docosa-1(20),3(22),4,6,9(21),10,12,16,18-nonaene]	–	–	–	–	162 nM	281 nM	> 10000 nM	1140 nM	–	–	–

— patent US8871753B2, “Macrocyclic compounds and their use as kinase inhibitors” (Incyte Corporation, priority 2008, dated 2014)
